Reference: ChEMBL document CHEMBL1156647, “Evolving trends in the dereplication of natural product extracts. 2. The isolation of chrysaibol, an antibiotic peptaibol from a New Zealand sample of the mycoparasitic fungus Sepedonium chrysospermum” (J Nat Prod, 2008)
Active and inactive are the calls of the source. No cut-off for these calls is given here. Residues, ends and D or L forms follow the SMILES beside them.

Key:
[1] = tested on: Bacillus subtilis; experiment: Antimicrobial activity against Bacillus subtilis; type: functional, organism-based
[2] = tested on: Candida albicans; experiment: Antimicrobial activity against Candida albicans; type: functional, organism-based
[3] = tested on: P388; experiment: Cytotoxicity against mouse P388 cells; type: functional, cell-based

## CC(=O)N[C@@H](Cc1c[nH]c2ccccc12)C(=O)NC(C)(C)C(=O)NC(C)(C)C(=O)N[C@@H](CC(C)C)C(=O)N[C@H](C(=O)N[C@@H](CCC(N)=O)C(=O)NC(C)(C)C(=O)NC(C)(C)C(=O)NC(C)(C)C(=O)N[C@@H](CCC(N)=O)C(=O)N[C@@H](CC(C)C)C(=O)NC(C)(C)C(=O)N1CCC[C@H]1C(=O)N[C@@H](CCC(N)=O)C(=O)N[C@@H](C)CO)C(C)C [CHRYSAIBOL] (HELM PEPTIDE1{[ac].W.[Aib].[Aib].L.V.Q.[Aib].[Aib].[Aib].Q.L.[Aib].P.Q.[C[C@@H](CO)N[*:1]]}$$$$V2.0)
[1]
  IC50: 1540 nM
[2]
  Activity: inactive
[3]
  IC50: 6.61 µM
